According to PubChem BioAssay (NCI):
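Values below derive from 48-hour exposures of cells grown in 96-well plates, with endpoints linearly interpolated between the two concentrations bracketing the appropriate inhibition level. Here, GI50 denotes the concentration required for 50% inhibition of growth. TGI: concentration producing complete growth inhibition.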

What was measured:
Assay in all cases: inhibition of tumour cell growth, NCI panel, 48 h
[1] = test system: A549 NSCLC
[2] = test system: DU-145 prostate
[3] = test system: HOP-92 NSCLC
[4] = test system: HS 578T breast
[5] = test system: M14 melanoma
[6] = test system: MCF7 breast
[7] = test system: MOLT-4 leukemia
[8] = test system: OVCAR-3 ovarian
[9] = test system: RXF 393 renal
[10] = test system: LOX IMVI melanoma

SMILES	TGI [1] [µM]	TGI [2] [µM]	TGI [3] [µM]	TGI [4] [µM]	TGI [5] [µM]	TGI [6] [µM]	TGI [7] [µM]	TGI [8] [µM]	TGI [9] [µM]	TGI [10] [µM]	GI50 [2] [µM]	GI50 [3] [µM]	GI50 [4] [µM]	GI50 [10] [µM]	GI50 [5] [µM]	GI50 [8] [µM]	GI50 [9] [µM]	GI50 [7] [µM]	GI50 [1] [µM]	GI50 [6] [µM]
COc1ccc(CNc2nc(NCc3ccc(OC)cc3)nc(N3CCOCC3)n2)cc1	> 100	> 100	> 100	> 100	> 100	> 100	10.9	6.81	> 100											
CC1(C)[C@@H]2C[C@H]1c1cnc(-c3ccccn3)cc1C2[C@@H]1c2cc(-c3ccccn3)ncc2[C@@H]2C[C@H]1C2(C)C (stereo not given in full)	> 100	> 100	> 100	> 100	> 100	> 100	> 100	> 100	> 100	> 100										
N#CC1=CNc2sccc2S1(=O)=O	> 100	> 100	> 100	> 100	> 100	> 100	> 100	> 100		> 100										
CC1=CC[C@@H]2CC[C@]3(C)[C@H](CC[C@@H]4[C@@]5(C)CCCNC(C)(C)[C@@H]5CC[C@]43C)[C@H]2[C@@H]1C		3.55	2.77	4.04	3.26			3.37	3.1	3.01	1.98	1.39	1.79	1.66	1.73	1.91	1.61			
CCOC(=O)c1cn(-c2ccc(Cl)cc2)c(=O)n2c1nc1ccccc12	> 100	> 100	> 100		> 100	> 100	> 100	> 100	> 100	> 100										
COC(OC)C(O)C1OC=CC1n1cnc2c(N)ncnc21 (stereo not given)		> 100	> 100	> 100		> 100	> 100	> 100	> 100	> 100										
CCOC(=O)c1sc2c(c1OC(=O)c1ccccc1)c(=O)n(-c1ccccc1)c(=S)n2-c1ccccc1	64.2	> 100	79.2	75.6	45.2	> 100	> 100	95.6	> 100	> 100										
Nc1nc2c(ncn2C2C=CC(CO)O2)c(=O)[nH]1 (stereo not given)		> 100	> 100	> 100	> 100	> 100	> 100	> 100	> 100	> 100										
CCOC(=O)C(O)(NC(C)=O)C(F)(F)F (stereo not given)	> 100	> 100	> 100	> 100	> 100	> 100	> 100	> 100	> 100	> 100										
O=C(O)c1ccc(Nc2nc3cc(C(F)(F)F)ccc3nc2C(=O)O)cc1		> 100		> 100		> 100	> 100	> 100	> 100	> 100										
O=[As](O)(O)c1cc(N=Nc2ccc(-c3ccc(N=Nc4cc([As](=O)(O)O)c(O)cc4O)cc3)cc2)c(O)cc1O	> 100		> 100		> 100		> 100	> 78.4	> 100	> 100										
COc1cc(C2C3=C(COC3=O)OC(C)(C)Oc3cc4c(cc32)OCO4)cc(OC)c1OC (stereo not given)	> 100		> 100	> 100		> 100	> 100			> 100										
N#CCCN(CCCN(C(=O)Nc1ccccc1)c1ccccc1)C(=O)Nc1ccccc1	> 100	> 100	> 100		> 100	> 100	> 100	> 100	> 100	> 100										
Cc1ccc(O)c(C2=NNC(c3cccc(Br)c3)C2)c1 (stereo not given)	> 100	> 100	92.7	> 100	> 100	> 100	> 100	> 100	> 100	> 100										
CCOC(=O)C1=C(C)NC(=S)NC1c1cccc(O)c1 (stereo not given)	> 100	> 100	> 84.3	> 100	60.5	> 100	> 100	> 100	65.7	> 100										
CC[N+](CC)=c1ccc2nc3c(cc(N)c4ccccc43)oc-2c1			0.497		0.61		0.334		0.319			0.19			0.216		0.173	0.122		
CC[N+](C)(CC)CCN1C(=O)c2ccccc2S1(=O)=O	> 100	> 100	> 100	> 100	> 100	> 100	> 100	> 100	> 100	> 100										
CC#CC(O)(C(=O)OC1CCCN(C)C1)C1=CC=CCC1 (stereo not given)	> 100	> 100	> 100	> 100	> 100	> 100	> 100	> 100	> 100	> 100										
CN(C(=O)c1ccc(Cl)s1)C(=S)N(C)C(=O)c1ccc(Cl)s1	> 10	> 10	> 10	> 10	> 10	> 10	> 10	> 10	> 10	> 10										
CN1CC(c2ccccc2)N(CCCCN2CC(c3ccccc3)N(C)CC2c2ccccc2)CC1c1ccccc1 (stereo not given)	> 100	> 100	> 100	> 100	> 100	> 100	> 100	> 100	71.1	39.1										
COc1cccc(-c2nc3sccn3c2-c2ccnc(NCCNC(=O)Nc3cccc(C(F)(F)F)c3)n2)c1	17.1	95.5	9.47	29	8.48	13.3	9.94	20.3	3.65	> 100	5.13	0.853	3.15	4.11	2.96	4.22	1.78	3.27	3.82	3.12
